“And” between values parts separate entries of the source, which are not always exact repeats. Identical values can stand only once.
Tests used:
[1] = Population pharmacokinetic model of studies MT-1-01, MT-2-01, MT-2-03; assay type: in vivo, human
From the text: MT-1-01 (healthy volunteers), MT-2-01 (adult men with adrenomyeloneuropathy (AMN), MT-2-03 (men, women≥12 years with Friedreich's Ataxia).
A total of 2140 valid plasma concentration measurements from 130 individuals were used in the analysis. Full PK profiles were available only from MT-1-01. In MT-2-03 only pre-dose (trough) concentrations were taken at multiple visits, while in MT-2-01 also sparse post-dose samples were taken. Less than 1% of all samples were below the limit of quantification.
2. Structural model-development using only data from healthy volunteers (MT-1-01) and inclusion of key structural covariates (food, body weight).
3. Re-estimation of parameters on the full analysis dataset (MT-1-01, MT-2-01, MT-2-03). Finalization of base model.
4. Stepwise automatic covariate modeling (SCM) using the base model.
NONMEM v7.5 was used for the population modelling. The RxODE package (v0.9.2) for R (v4.0.2) was used for the simulations.
Automated stepwise covariate modeling (SCM) using a forward addition/backward deletion procedure as implemented in PsN, Karlsson and Savic, C/in Pharmacol Ther 82:17-20 (2008), was applied to the base model on the complete analysis dataset. To improve the computation time of the SCM, PsN generates a linearized form of the model applying a Taylor-transformation on which then the covariate function is applied. Anderson et al., Annu Rev Pharmacol Toxicol 48:303-332 (2008). The final model from the SCM procedure was then rerun in its original, untransformed form.
The following covariates were tested in the model for their association with CL and relative bioavailability (F): • BMI • Height • Age • Ethnicity (Hispanic yes/no) • Sex

[2] = PBPK model input parameters: physicochemical
[3] = biological target: T1, CYP2C8 (Homo sapiens, UniProt P10632); assay: Metabolism kinetics with recombinant CYP2C8; assay type: in vitro ADME; details: therapeutic range, up to 30 μM initial incubation concentration
T1 sequence (P10632 1-490): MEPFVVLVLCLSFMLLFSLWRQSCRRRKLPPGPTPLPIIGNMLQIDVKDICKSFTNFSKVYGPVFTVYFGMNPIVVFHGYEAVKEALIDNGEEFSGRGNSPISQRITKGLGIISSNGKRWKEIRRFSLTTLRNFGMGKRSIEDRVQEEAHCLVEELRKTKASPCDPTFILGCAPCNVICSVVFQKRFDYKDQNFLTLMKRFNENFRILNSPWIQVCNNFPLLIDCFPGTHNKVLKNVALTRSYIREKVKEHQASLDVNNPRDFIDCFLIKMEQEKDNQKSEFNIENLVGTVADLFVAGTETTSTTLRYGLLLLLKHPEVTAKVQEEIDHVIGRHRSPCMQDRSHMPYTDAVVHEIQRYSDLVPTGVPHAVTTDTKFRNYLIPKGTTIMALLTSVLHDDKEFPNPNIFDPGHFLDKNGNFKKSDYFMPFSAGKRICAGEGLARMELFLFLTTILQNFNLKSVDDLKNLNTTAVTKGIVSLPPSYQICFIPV
From the text: (§1) CYP2C8 and CYP3A4 were identified in vitro as the major contributing enzymes of leriglitazone with CYP2C8 mostly responsible for the formation of the main metabolite M3. Kinetic parameters of human CYP2C8 and CYP3A4 mediated metabolism of leriglitazone were studied in in vitro studies using recombinant CYP3A4 and CYP2C8 enzymes (ADMESCOPE, Finland). […] As the disappearance of leriglitazone was very slow especially at high initial concentrations, the accuracy of the fit was not as good as based on M3 formation. […] Thus, it was not possible to fit the kinetic parameters Km and Vmax.

[4] = biological target: T1, CYP2C8; assay: CYP2C8 contribution to clearance (fm, CLint) for the PBPK model; details: before accounting for biliary and renal clearance
From the text: as §1

[5] = Phase 1 safety and tolerability (treatment-emergent adverse events); assay type: in vivo, human
Protocol: Study design: A phase 1, randomized, double blind, placebo-controlled, single-center clinical study in 33 male healthy volunteers (HV) (19-54 years, 63.2-95.7 Kg) was conducted with leriglitazone HCl and divided in two parts: a single ascending dose (SAD) with three dose levels (30, 90 and 270 mg) in fasted conditions, followed with two dose levels (90 and 270 mg) in fed conditions; a multiple ascending dose (MAD) with a double-blind, parallel-design with two dose levels (135 and 270 mg) for 8 days and a separate cohort of subjects in an open-label parallel design with two dose levels (135 and 270 mg) including cerebrospinal fluid (CSF) collection on day 8. In the fasted conditions a fasting period of at least 4 hours was required before obtaining plasma samples. The food effect (FE) was assessed by comparing fasted with fed conditions (dosing after a high-fat breakfast per FDA definition with a calculated caloric content of 918 kcal). In the MAD part (fed) the medication was taken before a normal breakfast. Leriglitazone HCl was supplied by ChemConnection and an oral suspension of leriglitazone (20% w/v kleptose, 2% ethanol in 100 mM phosphate buffer pH=7.8) at 6 mg/ml was used in the study. Safety: Safety and tolerability assessments consisted of adverse events (AEs), clinical laboratory, vital signs, 12-lead electrocardiogram (ECG), and physical examination.

In the case of `CC(O)c1ccc(CCOc2ccc(CC3SC(=O)NC3=O)cc2)nc1` (stereo not drawn) [Leriglitazone, 5-[[4-[2-[5-(1-hydroxyethyl)pyridin-2-yl]ethoxy]phenyl]methyl]-1,3-thiazolidine-2,4-dione], the “lower CL in women” value ([1]; popPK covariate sex) is reported as 14.7%, the “reduction of absorption rate when taken with food” value ([1]; popPK estimate) is reported as 82.9% and the “reduction of bioavailability by food” value ([1]; popPK estimate) is reported as 4.8% and < 5%. The “typical rate of absorption” value ([1]; taken without food, popPK estimate) was 5.2 h⁻¹, the Compound type [2] was “Diprotic Base” and the logP [2] was 2.47. For the same compound, the pKa ([2]; two values) was 4.97, the “contribution of CYP2C8, fraction metabolized” value [3] was “around 70%” and the “share of metabolism, CYP2C8” value [4] was 63.7%. For the same compound, the “Gastrointestinal disorders: E” value ([5]; 135 mg, N = 9) was 2, the “Gastrointestinal disorders: n (%)” value ([5]; 135 mg, N = 9) was 1 (11) and the “General disorders and administration site conditions: E” value ([5]; 135 mg, N = 9) was 1. For the same compound, the “General disorders and administration site conditions: n (%)” value ([5]; 135 mg, N = 9) was 1 (11), the “Metabolism and nutrition disorders: E” value ([5]; 135 mg, N = 9) was 1 and the “Metabolism and nutrition disorders: n (%)” value ([5]; 135 mg, N = 9) was 1 (11). The “Musculoskeletal and connective tissue disorders: E” value ([5]; 135 mg, N = 9) was 3, the “Musculoskeletal and connective tissue disorders: n (%)” value ([5]; 135 mg, N = 9) was 3 (33) and the “Nervous system disorders: E” value ([5]; 135 mg, N = 9) was 5. For the same compound, the “Nervous system disorders: n (%)” value ([5]; 135 mg, N = 9) was 3 (33), the “Renal and urinary disorders: E” value ([5]; 135 mg, N = 9) was 1 and the “Renal and urinary disorders: n (%)” value ([5]; 135 mg, N = 9) was 1 (11). For the same compound, the “TEAEs Total: E” value ([5]; 135 mg, N = 9) was 13, the “TEAEs Total: n (%)” value ([5]; 135 mg, N = 9) was 5 (56) and the “Eye disorders: E” value ([5]; 270 mg, N = 8) was 2. The “Eye disorders: n (%)” value ([5]; 270 mg, N = 8) was 1 (13), the “Gastrointestinal disorders: E” value ([5]; 270 mg, N = 8) was 4 and the “Gastrointestinal disorders: n (%)” value ([5]; 270 mg, N = 8) was 3 (38). The “General disorders and administration site conditions: E” value ([5]; 270 mg, N = 8) was 1, the “General disorders and administration site conditions: n (%)” value ([5]; 270 mg, N = 8) was 1 (13) and the “Infections and infestations: E” value ([5]; 270 mg, N = 8) was 2. The “Infections and infestations: n (%)” value ([5]; 270 mg, N = 8) was 2 (25), the “Musculoskeletal and connective tissue disorders: E” value ([5]; 270 mg, N = 8) was 1 and the “Musculoskeletal and connective tissue disorders: n (%)” value ([5]; 270 mg, N = 8) was 1 (13). The “Nervous system disorders: E” value ([5]; 270 mg, N = 8) was 3, the “Nervous system disorders: n (%)” value ([5]; 270 mg, N = 8) was 3 (38) and the “Respiratory, thoracic and mediastinal disorders: E” value ([5]; 270 mg, N = 8) was 3. For the same compound, the “Respiratory, thoracic and mediastinal disorders: n (%)” value ([5]; 270 mg, N = 8) was 3 (38), the “TEAEs Total: E” value ([5]; 270 mg, N = 8) was 16 and the “TEAEs Total: n (%)” value ([5]; 270 mg, N = 8) was 8 (100).

Reference: patent US20260207570A1, “OPTIMIZED DOSING OF LERIGLITAZONE” (MINORYX THERAPEUTICS S.L., priority 2022, published 2026)
